Test results taken from ChEMBL document CHEMBL1125171, “Approaches to isozyme-specific inhibitors. 17. Attachment of a selectivity-inducing substituent to a multisubstrate adduct. Implications for facilitated design of potent, isozyme-selective inhibitors” (J Med Chem, 1990).

What was measured:
[1] = Ratio of inhibitor constant for ATP substrate site of methionine adenosyl transferase and ATP substrate site of M-2 variant methionine adenosyl transferase
[2] = Ratio of inhibitor constant for ATP substrate site of methionine adenosyl transferase and ATP substrate site of M-T variant methionine adenosyl transferase
[3] = Ratio of inhibitor constant for Met substrate site of methionine adenosyl transferase and ATP substrate site of M-2 variant methionine adenosyl transferase
[4] = Ratio of inhibitor constant for Met substrate site of methionine adenosyl transferase and ATP substrate site of M-T variant methionine adenosyl transferase
[5] = target: S-adenosylmethionine synthase isoform type-2 (Rattus norvegicus) (UniProt P18298); assay: Inhibition constants against ATP substrate site of M-2 (kidney form) variant of rat Methionine adenosyltransferase
Sequence of S-adenosylmethionine synthase isoform type-2 (Rattus norvegicus) (P18298 whole entry, looked up, stated change not applied, canonical isoform): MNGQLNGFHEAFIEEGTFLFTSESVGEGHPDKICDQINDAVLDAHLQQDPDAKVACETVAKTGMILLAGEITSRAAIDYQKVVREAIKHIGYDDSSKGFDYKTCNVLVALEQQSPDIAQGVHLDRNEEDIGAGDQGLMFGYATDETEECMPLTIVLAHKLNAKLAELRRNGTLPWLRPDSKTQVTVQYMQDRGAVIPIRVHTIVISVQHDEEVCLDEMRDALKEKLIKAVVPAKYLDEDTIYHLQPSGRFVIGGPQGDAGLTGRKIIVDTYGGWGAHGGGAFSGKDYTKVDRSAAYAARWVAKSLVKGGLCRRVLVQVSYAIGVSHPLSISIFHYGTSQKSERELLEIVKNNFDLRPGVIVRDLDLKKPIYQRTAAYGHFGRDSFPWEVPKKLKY

[6] = target: S-adenosylmethionine synthase isoform type-2 (Rattus norvegicus) (UniProt P18298); assay: Inhibition constants with Met (L-methionine) substrate site of M-2 (kidney form) variant of rat Methionine adenosyltransferase
[7] = target: S-adenosylmethionine synthase isoform type-2 (Rattus norvegicus) (UniProt P18298); assay: Inhibition constants against ATP substrate site of M-T (Novikoff Ascitic Hepatoma form) variant of rat Methionine adenosyltransferase
[8] = target: S-adenosylmethionine synthase isoform type-2 (Rattus norvegicus) (UniProt P18298); assay: Inhibition constants against Met (L-methionine)P substrate site of M-T (Novikoff Ascitic Hepatoma form) variant of rat Methionine adenosyltransferase

Ratio [1]	Ratio [2]	Ratio [3]	Ratio [4]	Ki [5] [nM]	Ki [6] [nM]	Ki [7] [nM]	Ki [8] [nM]	SMILES
1170	1270	1.7	22	120	2900	110	740	CCCCSc1ncnc2c1ncn2[C@@H]1O[C@H]([C@H](CSCC[C@H](N)C(=O)O)OP(=O)(O)OP(=O)(O)NP(=O)(O)O)[C@@H](O)[C@H]1O
1080	670	7.7	22	130	650	210	670	Nc1ncnc2c1ncn2[C@@H]1O[C@H]([C@H](CSCCC(N)C(=O)O)OP(=O)(O)OP(=O)(O)NP(=O)(O)O)[C@@H](O)[C@H]1O (stereo not given in full)
0.45	1.4	–	–	310000	–	100000	–	CCCCSc1ncnc2c1ncn2[C@@H]1O[C@H](COP(=O)(O)OP(=O)(O)OP(=O)(O)O)[C@@H](O)[C@H]1O
